Source: patent US20090099187A1, “Novel 8-Sulfonyl-3 Aminosubstituted Chroman or Tetrahydronaphtalene Derivatives Modulating the 5HT6 Receptor” (AstraZeneca AB, priority 2005, published 2009)

Molecular target: rat striatal 5HT6 receptors (Rattus norvegicus, UniProt P31388)
Sequence (P31388 whole entry): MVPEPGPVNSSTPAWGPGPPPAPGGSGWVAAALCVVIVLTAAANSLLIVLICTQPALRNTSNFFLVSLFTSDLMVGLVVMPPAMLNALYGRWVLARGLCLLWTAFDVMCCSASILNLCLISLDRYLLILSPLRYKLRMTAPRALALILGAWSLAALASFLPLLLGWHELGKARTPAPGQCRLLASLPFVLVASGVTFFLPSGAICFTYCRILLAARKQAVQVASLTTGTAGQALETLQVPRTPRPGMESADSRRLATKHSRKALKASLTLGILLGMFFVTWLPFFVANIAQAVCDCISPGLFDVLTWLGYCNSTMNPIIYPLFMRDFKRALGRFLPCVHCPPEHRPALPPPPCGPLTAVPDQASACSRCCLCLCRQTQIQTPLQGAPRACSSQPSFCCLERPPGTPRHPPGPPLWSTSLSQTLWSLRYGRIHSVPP
Protocol: Striatal tissue from adult rats (Sprague-Dawley, 320-370 g, B & K Sweden) were dissected out, weighed and homogenized in buffer containing 50 mM Tris-HCl, 4 mM MgCl2, 1 mM EDTA, 10 μM pargyline and protease inhibitor (Complete, Roche Diagnostics) pH 7.4 using an Ultra-Turrax T8 (IKA Labortechnik, Germany). The tissue homogenate was centrifuged at 48 000×g for 10 min and the pellet was resuspended and recentrifuged as above. The final membranes were diluted in buffer to a concentration of 60 mg original wet weight (w.w.) per ml and stored in aliquots at −70° C.
Non-specific binding was determined in the presence of 10 μM methiothepin. In the competition experiments 0.8-2 mg w.w. per tube and a radioligand concentration of 0.5-1 nM were used with 7 concentrations of the competing drug pre-dissolved in DMSO and diluted in buffer. The assays were incubated for 1-3 hours at room temperature, and terminated by rapid filtration through Whatman GF/B filters pretreated with 0.3% polyethyleneimine using a Brandel cell harvester. The radioactivity was determined in a Packard Tri-Carb 2900TR liquid scintillation counter. Data were analyzed by non-linear regression analyses using PRISM 4.00 (GraphPad Software Inc., San Diego, Calif.).

`COc1ccc(Cl)cc1NS(=O)(=O)c1ccc(OC)c2c1CC[C@H](N(C)C)C2` [Example 1, (6S)—N-(5-Chloro-2-methoxyphenyl)-6-(dimethylamino)-4-methoxy-5,6,7,8-tetrahydronaphthalene-1-sulfonamide] and `COc1ccc(Cl)cc1NS(=O)(=O)c1ccc(OC)c2c1OC[C@H](N(C)C)C2` [Example 60, (3R)—N-(5-Chloro-2-methoxyphenyl)-3-(dimethylamino)-5-methoxychromane-8-sulfonamide] are within error of each other in Ki: 1.7 ± 0.6 nM for the first, 2.3 ± 1.3 nM for the second.

Going from `COc1ccc(S(=O)(=O)Nc2ccccn2)c2c1C[C@@H](N(C)C)CC2` [Example 18, (6S)-6-(Dimethylamino)-4-methoxy-N-pyridin-2-yl-5,6,7,8-tetrahydronaphthalene-1-sulfonamide] to `COc1ccc(S(=O)(=O)N2CCc3ccccc3C2)c2c1C[C@@H](N(C)C)CC2` [Example 21, [5-(3,4-Dihydro-1H-isoquinoline-2-sulfonyl)-8-methoxy-1,2,3,4-tetrahydro-naphthalen-2-yl]-dimethyl-amine], the Ki falls from 17 ± 5 nM to 4.2 ± 1.4 nM (4-fold). The second binds more tightly here.

Compared with `CN[C@H]1CCc2c(S(=O)(=O)Nc3ccc(Cl)cc3)ccc(OC)c2C1` [Example 25, (6S)—N-(4-chlorophenyl)-4-methoxy-6-(methylamino)-5,6,7,8-tetrahydronaphthalene-1-sulfonamide], `CN[C@H]1COc2c(S(=O)(=O)Nc3ccccc3)ccc(OC)c2C1` [Example 71, (3R)-5-Methoxy-3-(methylamino)-N-phenylchromane-8-sulfonamide] is 2.5-fold higher in Ki: 12 ± 4.2 nM for the first, 30 ± 7 nM for the second.

Going from `COc1ccc(S(=O)(=O)Nc2cc(Cl)cc(Cl)c2)c2c1C[C@@H](N1CCCC1)CO2` [Example 69, (3R)—N-(3,5-Dichlorophenyl)-5-methoxy-3-pyrrolidin-1-ylchromane-8-sulfonamide] to `CCc1ccc(S(=O)(=O)Nc2ccc(F)c(Cl)c2)c2c1C[C@@H](N(C)C)CO2` [Example 72, (3R)—N-(3-Chloro-4-fluorophenyl)-3-(dimethylamino)-5-ethylchromane-8-sulfonamide], the Ki rises from 27 ± 16 nM to 290 ± 50 nM (11-fold).
